Molecular target: T1, TAOK3 (JIK) (Homo sapiens, UniProt Q9H2K8)
T1 construct: purchased Thermo Fisher Scientific (Life Technologies) SelectScreen
Test: SelectScreen LanthaScreen
Format: binding
Conditions: read-out: % displacement
In short: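 NU5455 was profiled across the SelectScreen Broad panel of kinase activity and binding assays. Z'LYTE reactions such as CSF1R ran at apparent Km ATP, while the Adapta CAMK1 assay used ATP listed as 10. Values are given as percent.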

T1 sequence (Q9H2K8 whole entry): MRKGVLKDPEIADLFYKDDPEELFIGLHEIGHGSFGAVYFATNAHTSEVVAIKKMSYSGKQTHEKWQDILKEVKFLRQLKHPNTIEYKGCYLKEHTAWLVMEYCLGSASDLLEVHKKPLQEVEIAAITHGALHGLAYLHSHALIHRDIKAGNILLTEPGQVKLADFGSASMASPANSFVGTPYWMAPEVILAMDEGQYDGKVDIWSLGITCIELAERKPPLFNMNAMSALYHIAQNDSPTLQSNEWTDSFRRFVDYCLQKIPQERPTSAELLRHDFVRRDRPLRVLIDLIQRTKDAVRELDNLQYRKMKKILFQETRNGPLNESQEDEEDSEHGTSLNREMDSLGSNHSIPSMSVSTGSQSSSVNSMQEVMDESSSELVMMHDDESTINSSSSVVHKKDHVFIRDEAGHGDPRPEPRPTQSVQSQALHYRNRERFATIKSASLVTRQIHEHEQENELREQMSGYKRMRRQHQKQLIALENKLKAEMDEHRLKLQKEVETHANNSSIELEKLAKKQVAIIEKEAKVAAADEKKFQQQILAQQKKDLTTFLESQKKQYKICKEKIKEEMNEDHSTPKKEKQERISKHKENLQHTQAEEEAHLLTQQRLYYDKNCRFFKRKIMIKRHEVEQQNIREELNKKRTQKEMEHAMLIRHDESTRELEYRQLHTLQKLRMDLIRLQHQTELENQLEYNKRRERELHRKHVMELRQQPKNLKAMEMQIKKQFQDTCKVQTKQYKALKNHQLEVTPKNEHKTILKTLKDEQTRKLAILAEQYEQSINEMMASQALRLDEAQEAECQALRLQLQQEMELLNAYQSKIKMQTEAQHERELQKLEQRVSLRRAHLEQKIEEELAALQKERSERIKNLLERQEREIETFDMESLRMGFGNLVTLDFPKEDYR

CN(C(=O)CN1CCOCC1)c1ccc2sc3c(-c4cccc5c(=O)cc(N6CC7CCC(C6)O7)oc45)cccc3c2c1 [NU5455]
inhibition at 1 µM: 4.2%

— article PMC6934184, “Selective DNA-PKcs inhibition extends the therapeutic index of localized radiotherapy and chemotherapy” (The Journal of Clinical Investigation, 2019)
